From patent US6274715A, “Tricyclic erythromycin derivatives” (priority 1997, dated 2001)
Values after ≈ are worked out from the molar mass of the structure shown.

How the values were obtained:
Format in all cases: cell-based
[1] = test system: PSEUDOMONAS AERUGINOSA 5007; assay: In vitro antibacterial activity, MIC, BHI agar dilution; conditions: P. aeruginosa 5007, unit assumed
[2] = test system: STAPHYLOCOCCUS AUREUS NCTC10649M; assay: as above; conditions: S. aureus NCTC10649M, unit assumed
[3] = test system: ESCHERICHIA COLI KNK 437; conditions: E. coli KNK 437; BHI agar; unit assumed
[4] = test system: STAPHYLOCOCCUS AUREUS ATCC 6538P; assay: In vitro antibacterial activity, MIC, BHI agar dilution; conditions: S. aureus ATCC 6538P, 35-37° C., 20 to 24 hours, unit assumed
[5] = test system: STAPHYLOCOCCUS AUREUS A-5278; assay: as above; conditions: S. aureus A-5278, unit assumed
[6] = test system: STREPTOCOCCUS PYOGENES PIU 2548; assay: as above; conditions: S. pyogenes PIU 2548, unit assumed
[7] = test system: PSEUDOMONAS AERUGINOSA DPHD-5263; assay: as above; conditions: P. aeruginosa DPHD-5263, unit assumed
[8] = test system: STAPHYLOCOCCUS AUREUS 1775; assay: as above; conditions: S. aureus 1775, unit assumed
[9] = test system: ESCHERICHIA COLI SS; assay: as above; conditions: E. coli SS, unit assumed
[10] = test system: ESCHERICHIA COLI H560; assay: as above; conditions: E. coli H560, unit assumed
[11] = test system: STAPHYLOCOCCUS EPIDERMIDIS 3519; conditions: S. epidermidis 3519; BHI agar; unit assumed
[12] = test system: EN[…] ATCC 8043; assay: In vitro antibacterial activity, MIC, BHI agar dilution; conditions: E. faecium ATCC 8043, unit assumed
In short: (§1)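 MIC was read visually as the lowest drug level with no growth, a slight haze or sparsely isolated colonies relative to a compound-free growth control. Organisms were spotted at 1:100 dilution (1:10 for slow-growing strains) onto Brain Heart Infusion agar containing serial compound dilutions and incubated 20 to 24 hours at 35-37° C.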

[13] = test system: M[…] ATCC 9341; assay: as above; conditions: M. luteus ATCC 9341, unit assumed
In short: as §1

[14] = test system: M[…] ATCC 4698; assay: as above; conditions: M. luteus ATCC 4698, unit assumed
In short: as §1

[15] = test system: STR[…] 508; assay: as above; conditions: S. agalactiae CMX 508, unit assumed
In short: as §1

[16] = test system: KLEBSIELLA PNEUMONIAE ATCC 8045; assay: as above; conditions: K. pneumoniae ATCC 8045, unit assumed
[17] = test system: PSEUDOMONAS AERUGINOSA BMH10; assay: as above; conditions: P. aeruginosa BMH10, unit assumed
[18] = test system: STREPTOCOCCUS PYOGENES EES61; assay: as above; conditions: S. pyogenes EES61, unit assumed
[19] = test system: PROVIDENCIA STUARTII CMX 640; conditions: P. stuartii CMX 640; BHI agar; unit assumed
[20] = test system: PSEUDOMONAS AERUGINOSA DPHD-2862; assay: In vitro antibacterial activity, MIC, BHI agar dilution; conditions: P. aeruginosa DPHD-2862, unit assumed
[21] = test system: STAPHYLOCOCCUS AUREUS CMX 553; assay: as above; conditions: S. aureus CMX 553, unit assumed
[22] = test system: PSEUDOMONAS CEPACIA 296I; assay: as above; conditions: P. cepacia 296I, unit assumed
[23] = test system: CANDIDA ALBICANS CCH 442; assay: as above; conditions: C. albicans CCH 442, unit assumed
[24] = test system: STAPHYLOCOCCUS AUREUS CMX 642A; assay: as above; conditions: S. aureus CMX 642A, unit assumed
[25] = test system: STAPHYLOCOCCUS AUREUS A5177; assay: as above; conditions: S. aureus A5177, unit assumed
[26] = test system: ESCHERICHIA COLI JUHL; conditions: E. coli JUHL; BHI agar; unit assumed
[27] = test system: ENTEROBACTER AEROGENES ATCC 13048; assay: In vitro antibacterial activity, MIC, BHI agar dilution; conditions: E. aerogenes ATCC 13048, unit assumed
[28] = test system: ESCHERICHIA COLI DC-2; assay: as above; conditions: E. coli DC-2, unit assumed
[29] = test system: MYCOBACTERIUM SMEGMATIS ATCC 114; assay: as above; conditions: M. smegmatis ATCC 114, unit assumed
[30] = test system: STREPTOCOCCUS BOVIS A-5169; assay: as above; conditions: S. bovis A-5169, unit assumed
[31] = test system: PSEUDOMONAS AERUGINOSA K799/WT; assay: as above; conditions: P. aeruginosa K799/WT, unit assumed
[32] = test system: STREPTOCOCCUS PYOGENES 930; assay: as above; conditions: S. pyogenes 930, unit assumed
[33] = test system: PSEUDOMONAS AERUGINOSA K799/61; assay: as above; conditions: P. aeruginosa K799/61, unit assumed

Compound | MIC [1] | MIC [2] | MIC [3] | MIC [4] | MIC [5] | MIC [6] | MIC [7] | MIC [8] | MIC [9] | MIC [10] | MIC [11] | MIC [12] | MIC [13] | MIC [14] | MIC [15] | MIC [16] | MIC [17] | MIC [18] | MIC [19] | MIC [20] | other results
CC[C@H]1OC(=O)[C@H](C)C(=O)[C@H](C)[C@@H](O[C@@H]2O[C@H](C)C[C@H](N(C)C)[C@H]2O)[C@](C)(OC)C[C@@H](C)C2=N[C@@H](C)[C@H](C)N3C(=O)O[C@@]1(C)[C@H]3[C@H]2C [Example 11] | > 100 µg/mL | 0.39 µg/mL (≈ 0.586 µM) | 25 µg/mL (≈ 37.5 µM) | 0.39 µg/mL (≈ 0.586 µM) | > 100 µg/mL | 0.39 µg/mL (≈ 0.586 µM) | > 100 µg/mL | > 100 µg/mL | 0.39 µg/mL (≈ 0.586 µM) | 6.2 µg/mL (≈ 9.31 µM) | 0.39 µg/mL (≈ 0.586 µM) | 0.1 µg/mL (≈ 0.15 µM) | 0.2 µg/mL (≈ 0.3 µM) | 0.39 µg/mL (≈ 0.586 µM) | 0.05 µg/mL (≈ 0.0751 µM) | 12.5 µg/mL (≈ 18.8 µM) | > 100 µg/mL | 0.005 µg/mL (≈ 0.00751 µM) | > 100 µg/mL | > 100 µg/mL | MIC [21]: 0.39 µg/mL (≈ 0.586 µM); MIC [22]: > 100 µg/mL; MIC [23]: > 100 µg/mL; MIC [24]: 0.39 µg/mL (≈ 0.586 µM); MIC [25]: 0.39 µg/mL (≈ 0.586 µM); MIC [26]: 25 µg/mL (≈ 37.5 µM); MIC [27]: 25 µg/mL (≈ 37.5 µM); MIC [28]: 25 µg/mL (≈ 37.5 µM); MIC [29]: 6.2 µg/mL (≈ 9.31 µM); MIC [30]: 0.01 µg/mL (≈ 0.015 µM); MIC [31]: > 100 µg/mL; MIC [32]: > 100 µg/mL
CC[C@H]1OC(=O)[C@H](C)C(=O)[C@H](C)[C@@H](O[C@@H]2O[C@H](C)C[C@H](N(C)C)[C@H]2O)[C@](C)(OC)C[C@@H](C)C2=N[C@@H]3CN(CCc4ccccc4)C[C@@H]3N3C(=O)O[C@@]1(C)[C@H]3[C@H]2C [Example 23] | > 100 µg/mL | 0.2 µg/mL (≈ 0.255 µM) | 25 µg/mL (≈ 31.9 µM) | 0.2 µg/mL (≈ 0.255 µM) | > 100 µg/mL | 0.78 µg/mL (≈ 0.996 µM) | > 100 µg/mL | > 100 µg/mL | 0.05 µg/mL (≈ 0.0639 µM) | 6.2 µg/mL (≈ 7.92 µM) | 0.78 µg/mL (≈ 0.996 µM) | 0.05 µg/mL (≈ 0.0639 µM) | 0.05 µg/mL (≈ 0.0639 µM) | 0.2 µg/mL (≈ 0.255 µM) | ≤ 0.005 µg/mL | 100 µg/mL (≈ 128 µM) | > 100 µg/mL | ≤ 0.005 µg/mL | > 100 µg/mL | > 100 µg/mL | MIC [33]: 0.2 µg/mL (≈ 0.255 µM); MIC [21]: 0.2 µg/mL (≈ 0.255 µM); MIC [22]: 100 µg/mL (≈ 128 µM); MIC [23]: > 100 µg/mL; MIC [24]: 0.2 µg/mL (≈ 0.255 µM); MIC [25]: 0.2 µg/mL (≈ 0.255 µM); MIC [26]: 50 µg/mL (≈ 63.9 µM); MIC [27]: 100 µg/mL (≈ 128 µM); MIC [28]: 12.5 µg/mL (≈ 16 µM); MIC [29]: 0.39 µg/mL (≈ 0.498 µM); MIC [30]: ≤ 0.005 µg/mL; MIC [31]: 100 µg/mL (≈ 128 µM); MIC [32]: > 100 µg/mL
CC[C@H]1OC(=O)[C@H](C)C(=O)[C@H](C)[C@@H](O[C@@H]2O[C@H](C)C[C@H](N(C)C)[C@H]2O)[C@](C)(OC)C[C@@H](C)C2=N[C@H](CO)CN3C(=O)O[C@@]1(C)[C@H]3[C@H]2C [Example 52] | > 100 µg/mL | 0.78 µg/mL (≈ 1.17 µM) | 100 µg/mL (≈ 150 µM) | 0.78 µg/mL (≈ 1.17 µM) | > 100 µg/mL | 1.56 µg/mL (≈ 2.34 µM) | > 100 µg/mL | > 100 µg/mL | 0.39 µg/mL (≈ 0.584 µM) | 50 µg/mL (≈ 74.9 µM) | 0.78 µg/mL (≈ 1.17 µM) | 0.2 µg/mL (≈ 0.299 µM) | 0.1 µg/mL (≈ 0.15 µM) | 0.39 µg/mL (≈ 0.584 µM) | 0.05 µg/mL (≈ 0.0749 µM) | > 100 µg/mL | > 100 µg/mL | 0.05 µg/mL (≈ 0.0749 µM) | > 100 µg/mL | > 100 µg/mL | MIC [33]: 1.56 µg/mL (≈ 2.34 µM); MIC [21]: 0.78 µg/mL (≈ 1.17 µM); MIC [22]: > 100 µg/mL; MIC [23]: > 100 µg/mL; MIC [24]: 0.78 µg/mL (≈ 1.17 µM); MIC [25]: 0.78 µg/mL (≈ 1.17 µM); MIC [26]: 100 µg/mL (≈ 150 µM); MIC [27]: > 100 µg/mL; MIC [28]: 100 µg/mL (≈ 150 µM); MIC [29]: 12.5 µg/mL (≈ 18.7 µM); MIC [30]: 0.05 µg/mL (≈ 0.0749 µM); MIC [31]: > 100 µg/mL; MIC [32]: > 100 µg/mL
